Entries after “also recorded” stand apart in the source; their conditions may differ.
System: mouse IL-6
Assay: IL-6 ELISA on culture medium of differentiated C2C12 cells exposed to a cytokine mixture (cytomix, CTX)
Format: cell-based
Settings: for % reduction IL-6: C2C12, 24 h pre-treatment, then 24 h with cytomix; for IL-6 / anti-inflammatory effect (FIG. 1): pre-treatment for 24 hours at 3.125 μM alone
Experimental: C2C12 Myoblasts purchased from ATCC (ref. CRL-1772) were seeded at 8000 cells per well in a 96 well plate (Greiner) using a DMEM Glutamax 4.5g D-glucose (Gibco, ref 31966021) supplemented with FIBS 10% (PanBiotech, ref P190902), 1% PenStrep (Biowest) and 1% Hepes (Biowest). Cells were then differentiated for 6 days using a differentiation medium (DMEM Glutamax 4.5g D-glucose (Gibco, ref 31966021), 2% Horse serum (Thermofisher, ref 160501229) 1% PenStrep and 1% Hepes). All media were sterilized with a 0.45 um filter unit (VWR). After 4 days of the differentiation cells were treated for 24 h with 1) Urolithin A (UA) resuspended in DMSO, 2) ginsenoside […]-3832) or 3) a combination of the two at the indicated doses. A cytokine mixture (“cytomix”) was added at day 5 in addition of the previous treatment for another 24 h, cytokines were respectively used at 5ng (mIFN-γ (Roche ref. 11276905001), TNF-α (Peprotech ref. 300-01A) and IL-1β (Proteintech ref. 200-01B)). The medium was collected and an ELISA for Interleukin-6 were performed following the instruction provided by the supplier (Proteintech ref. KE10007). In particular, the IL-6 ELISA kit is to be used to detect and quantify protein levels of endogenous mouse IL-6. The assay recognizes mouse IL-6. An antibody specific for mouse IL-6 has been pre-coated onto the microwells. The IL-6 protein in samples is captured by the coated antibody after incubation. Following extensive washing, another antibody of biotinylated specific for mouse IL-6 is added to detect the captured mouse IL-6 protein. For signal development, Streptavidin-HRP is added, followed by Tetramethyl-benzidine (TMB) reagent. Solution containing sulfuric acid is used to stop colour development and the colour intensity which is proportional to the quantity of bound protein is measurable at 450 nm with the correction wavelength set at 630 nm, using a microplate plate reader (Fluostar Optima, BMG Labtech). We exposed of C2C12 to a mix of pro-inflammatory cytokines (cytomix, CTX) to induce inflammation signals. Interleukin-6 (IL-6), a multifunctional cytokine produced in cells and induced by a variety of stimulating signals. IL-6 production and release in the media is a proxy of the inflammation induced by treatment with the cytokines part of the cytomix (Tosato & Jones (1990) Blood 75(6), 1305-10). With cytomix treatment, we observed a significant increase in Interleukin 6 (IL-6) secretion, measured as the concentration of IL-6 in the cell culture media.

Compound	% reduction IL-6 (CTX 5 ng vs. Rg1 3.125 μM + CTX)	IL-6 / anti-inflammatory effect (FIG. 1) (cytomix-treated C2C12)	IL-6 / anti-inflammatory effect (FIG. 1) (cytomix-treated C2C12, listed as Rg1)	IL-6 (FIG. 1) (pre-treatment for 24 hours at 12.5 μM, cytomix-treated C2C12)	IL-6 (FIG. 1) (pre-treatment for 24 hours at 100 μM, cytomix-treated C2C12)	IL-6, dose dependence (FIG. 1) (pre-treatment for 24 hours, 3.125 to 100 μM, cytomix-treated C2C12)	% reduction IL-6 (CTX 5 ng vs. UA 6.25 μM + CTX) [%]	IL-6 secretion (FIG. 1) (pre-treatment for 24 hours at 6.25 μM, cytomix-treated C2C12)
CC(C)=CCC[C@](C)(O[C@@H]1O[C@H](CO)[C@@H](O)[C@H](O)[C@H]1O)[C@H]1CC[C@]2(C)[C@@H]1[C@H](O)C[C@@H]1[C@@]3(C)CC[C@H](O)C(C)(C)[C@@H]3[C@@H](O[C@@H]3O[C@H](CO)[C@@H](O)[C@H](O)[C@H]3O)C[C@]12C [Ginsenoside Rg1, ginsenoside Rg1]	+9.8%	no effects	did not show any anti-inflammatory effect alone; also recorded: no effects	non-significant trend in reduction	significant decrease	dose dependent decrease in IL-6		
O=c1oc2cc(O)ccc2c2ccc(O)cc12 [Urolithin A]							−16	significantly decreased IL-6 secretion

Source: patent US20250161391A1, “UROLITHIN COMBINATION” (Amazentis SA, priority 2023, published 2025)
